These results are taken from patent US7544483B2, “Method for the production of protamine” (priority 2002, dated 2009).

What all share (assay type): cell-based
The test system of assay [1] is Micrococcus luteus DSM 348. Description: Effect of biological buffers with or without protamine on the growth of Micrococcus luteus DSM 348. As to conditions: for μ (growth rate): buffer without protamine, pH of 8.0 (FIG. 4), starting inoculum 10^7 cells, mean of three replicates. The method, then: (§1) All bacterial strains are maintained as frozen stocks at −80° C. in TSB, Luria-Bertani broth.
(§2) Throughout the experiments strains are subcultured every 2 weeks on TSA (tryptic soy agar; 15 g l^−1 agar) or LBA (Luria-Bertani agar; 15 g l^−1 agar) depending upon the type of bacteria and experiment and kept at 4° C. The incubation temperature is 37° C. except for photo-heterotrophic bacteria (30° C.).
(§3) The growth curve is determined by measuring the optical density (OD), growth rate and doubling time. Additionally, the number of colony forming units is determined by counting bacterial spots.
(§4) Bacterial growth is monitored by recording the increase in optical density (OD) at 560 nm in a spectrophotometer (Ultrospec 1000, Pharmacia Biotech, England). Sterile medium is used as reference. […] At given times, 100 μl aliquots of the samples are removed and spread on corresponding agar plates. If necessary, the samples are diluted by factors between 10^2−10^8 to ensure good count ability. Colony forming unit determination (CFU/ml) is carried out in duplicate using a CCD camera module (Sony Corp., Japan) applying the BioProfil Software V 2000.01 (Vilber Lourmat, France).
(§5) A commercially available protamine from Salmon is obtained from Sigma Aldrich (Taufkirchen, Germany). A stock solution is prepared by dissolving protamine in distilled water. The solution is then sterilized with Rotabilo© filter units (0.22 μm; Carl Roth, Karlsruhe, Germany) and stored at −20° C. until use.
Determination of Bactericidal Effect of Biological Buffers With or Without Protamine on Gram-positive Bacteria
(§6) In all experiments the starting inoculum is 10^7 cells. The data shown are average means of three replicates.

For the next assay, the system named is Escherichia coli DH5α. Description: Effect of biological buffers with or without protamine on the growth of Escherichia coli DH5α. Particulars: buffer without protamine; starting inoculum 10^7 cells; mean of three replicates. Here is the method: as §1, §2, §3, §4, §5
Determination of Bactericidal Effect of Biological Buffers With or Without Protamine on Gram-negative Bacteria
as §6

In another assay the test system is Escherichia coli. Description: Growth of Escherichia coli in the presence of protamine.
A further assay has as its system Pseudomonas fluorescens. Description: Protamine tolerance of Pseudomonas fluorescens with a special phenotype.

Counter-ions that a name gives are not always drawn.

On to `O=C(O)CC(O)(CC(=O)O)C(=O)O` [0.4M citrate], for which the “μ (growth rate)” value in assay [1] amounted to 0 h⁻¹. For the same compound, in the assay on Escherichia coli DH5α, the “td (doubling time)” value worked out at 3.75 h and the “μ (growth rate)” value came to 0.185 h⁻¹.

For the compound lysozyme, in assay [1] (pH of 8.0, citrate + bicarbonate composition with protamine, relative to the amount needed without lysozyme), the “concentration of protamine needed for bacterial death on further addition of lysozyme” value stood at 30%.

In the case of `O=C([O-])O.[Na+]` [0.1M NaHCO3, NaHCO3], the “μ (growth rate)” value in assay [1] amounted to 0 h⁻¹. For the same compound, in the assay with Escherichia coli DH5α, the “td (doubling time)” value is given as 3.01 h and the “μ (growth rate)” value amounted to 0.230 h⁻¹.

Regarding protamine, the “effect of the composition additionally comprising protamine” value in assay [1] (pH of 8.0, citrate + bicarbonate composition) was “bacterial death”. Also, the “protamine concentration at which the organism does not grow” value in the assay on Escherichia coli was 1,5 mg/ml. Moreover, the protamine concentrations tolerated result in the assay on Pseudomonas fluorescens is recorded as “more than 40 mg/ml”.
